Here are results for eight compounds from ChEMBL document CHEMBL3045406, “Enantioselective Relieving Activity of α-Methylbenzylphenylureas toward Bensulfuron-methyl Injury to Rice (Oryza sativa)” (Biosci Biotechnol Biochem, 1999).

For data set [1], the system named is Oryza sativa. Put plainly: Relieving activity against bensulfuron-methyl induced injury to Oryza sativa (rice) assessed as growth rate at 0.1 uM (Rbv = 46 to 53%). It is filed as functional.
A short description of data set [2]: Hydrophobicity, log K of the compound. Format: physicochemical. The settings on record: octanol/water.
Data set [3] concerns Oryza sativa. The data set can be described thus: Effect on Oryza sativa (rice) assessed as growth rate at 0.1 uM relative to control. It is filed as organism-based. The settings on record: in vivo.
For data set [4], the system named is Oryza sativa. The data set can be described thus: Safener indices, ratio of compound effect of Oryza sativa (rice) growth rate to relieving activity against bensulfuron-methyl induced injury to Oryza sativa growth rate at 10 uM.
Data set [5] concerns Oryza sativa. Put plainly: Effect on Oryza sativa (rice) assessed as growth rate at 10 uM relative to control. It is filed as organism-based. The settings on record: in vivo.
In data set [6] the test system is Oryza sativa. Put plainly: Relieving activity against bensulfuron-methyl induced injury to Oryza sativa (rice) assessed as growth rate at 10 uM (Rbv = 46 to 53%). Format: functional.
The test system of data set [7] is Oryza sativa. Put plainly: Safener indices, ratio of compound effect of Oryza sativa (rice) growth rate to relieving activity against bensulfuron-methyl induced injury to Oryza sativa growth rate at 1 uM.
Data set [8] relates to Oryza sativa. The data set can be described thus: Relieving activity against bensulfuron-methyl induced injury to Oryza sativa (rice) assessed as growth rate at 1 uM (Rbv = 46 to 53%). Format: functional.
For data set [9], the system named is Oryza sativa. Put plainly: Safener indices, ratio of compound effect of Oryza sativa (rice) growth rate to relieving activity against bensulfuron-methyl induced injury to Oryza sativa growth rate at 0.1 uM.
Data set [10] has as its system Oryza sativa. Put plainly: Effect on Oryza sativa (rice) assessed as growth rate at 1 uM relative to control. It is filed as organism-based. The settings on record: in vivo.

Turning to `CCc1cccc(CC)c1NC(=O)N[C@H](C)c1ccccc1`, the Activity is recorded as 54% in the data set on Oryza sativa [1]; 101% with Oryza sativa [3]; 99% with Oryza sativa [5]; 77% in the data set on Oryza sativa [6]; 63% in the data set with Oryza sativa [8]; 101% with Oryza sativa [10]. The “log K” value in [2] is 0.523. Also, the Ratio in the data set with Oryza sativa [4] was determined as 53; in the data set with Oryza sativa [7], 25; in the data set with Oryza sativa [9], 6.
Take `CC(=O)c1ccc(NC(=O)N[C@@H](C)c2ccccc2)cc1`: the Activity with Oryza sativa [1] was 60%; with Oryza sativa [3], 99%; with Oryza sativa [5], 96%; in the data set with Oryza sativa [6], 86%; with Oryza sativa [8], 81%; in the data set on Oryza sativa [10] it was 99%. The “log K” value in data set [2] was found to be 0.227. Also, the Ratio in the data set with Oryza sativa [4] came out at 74; with Oryza sativa [7], 63; with Oryza sativa [9], 24.
For the compound `COc1ccc(NC(=O)N[C@@H](C)c2ccccc2)cc1`, the Activity turned out to be 59% with Oryza sativa [1]; 104% in the data set on Oryza sativa [3]; 95% in the data set on Oryza sativa [5]; 91% in the data set with Oryza sativa [6]; 81% in the data set with Oryza sativa [8]; 99% with Oryza sativa [10]. Besides, the “log K” value in [2] stood at 0.211. Further, the results for the Ratio in the data set on Oryza sativa [4], in the data set with Oryza sativa [7] and in the data set with Oryza sativa [9] were 81, 57 and 6, respectively.
Regarding `C[C@@H](NC(=O)Nc1ccc(F)c(F)c1)c1ccccc1`, the Activity in the data set on Oryza sativa [1] is 52%; in the data set on Oryza sativa [3], 99%; with Oryza sativa [5] it was 96%; in the data set on Oryza sativa [6], 73%; in the data set on Oryza sativa [8], 60%; in the data set on Oryza sativa [10], 99%. The “log K” value in [2] amounted to 0.398. Further, the Ratio in the data set with Oryza sativa [4] is 47; in the data set with Oryza sativa [7] it was 21; in the data set on Oryza sativa [9], 4.
For `CCCc1ccc(NC(=O)N[C@@H](C)c2ccccc2)cc1`, the Activity in the data set on Oryza sativa [1] worked out at 66%; with Oryza sativa [3] it was 97%; in the data set with Oryza sativa [5], 73%; in the data set on Oryza sativa [6] it was 69%; with Oryza sativa [8] it was 68%; in the data set with Oryza sativa [10] it was 76%. In [2], the “log K” value worked out at 0.602. The Ratio in the data set on Oryza sativa [4] is 50; with Oryza sativa [7] it was 47; in the data set on Oryza sativa [9], 30.
Consider `CCCCCCCc1ccc(NC(=O)N[C@H](C)c2ccccc2)cc1`, for which the Activity with Oryza sativa [1] was 51%; with Oryza sativa [3], 100%; in the data set with Oryza sativa [5], 100%; in the data set with Oryza sativa [6], 53%; in the data set on Oryza sativa [8] it was 52%; with Oryza sativa [10], 100%. For the same compound, the “log K” value in data set [2] worked out at 1.266. Besides, the figures for the Ratio with Oryza sativa [4], in the data set with Oryza sativa [7] and in the data set on Oryza sativa [9] were 9, 5 and 5, respectively.
As for `C[C@H](NC(=O)Nc1ccc(Cl)c(Cl)c1)c1ccccc1`, the Activity in the data set with Oryza sativa [1] is on record as 70%; in the data set with Oryza sativa [3], 98%; in the data set on Oryza sativa [5], 99%; in the data set with Oryza sativa [6] it was 90%; with Oryza sativa [8], 78%; in the data set with Oryza sativa [10] it was 97%. For the same compound, the “log K” value in data set [2] is given as 0.61. The values for the Ratio in the data set with Oryza sativa [4], in the data set with Oryza sativa [7] and in the data set with Oryza sativa [9] were 81, 57 and 39, respectively.
Regarding `C[C@@H](NC(=O)Nc1cc(Cl)cc(Cl)c1)c1ccccc1`, the Activity was determined as 58% in the data set with Oryza sativa [1]; 99% with Oryza sativa [3]; 99% in the data set with Oryza sativa [5]; 69% in the data set on Oryza sativa [6]; 63% in the data set with Oryza sativa [8]; 99% with Oryza sativa [10]. Besides, the “log K” value in data set [2] is listed as 0.703. Besides, the Ratio in the data set on Oryza sativa [4] stood at 37; with Oryza sativa [7], 25; with Oryza sativa [9], 14.
